A word on the Ki: it is a measure of affinity in units of concentration, obtained from inhibition or displacement. What is called solubility is how much of the substance goes into solution per volume. A lower solubility goes with a poorly soluble substance. A word on the inhibition: it is the relative decrease from the control value, in per cent. The low end stands for a response near the control, the high end for a response far below the control.

Converted amounts (≈) assume the structure as drawn. Read-outs that look alike come from different tables or passages of the source.

The target in series [1] is T1, MMP-9 (Homo sapiens, UniProt P14780). Description: biochemical.
Target sequence in this assay (P14780 107-707 limits assumed): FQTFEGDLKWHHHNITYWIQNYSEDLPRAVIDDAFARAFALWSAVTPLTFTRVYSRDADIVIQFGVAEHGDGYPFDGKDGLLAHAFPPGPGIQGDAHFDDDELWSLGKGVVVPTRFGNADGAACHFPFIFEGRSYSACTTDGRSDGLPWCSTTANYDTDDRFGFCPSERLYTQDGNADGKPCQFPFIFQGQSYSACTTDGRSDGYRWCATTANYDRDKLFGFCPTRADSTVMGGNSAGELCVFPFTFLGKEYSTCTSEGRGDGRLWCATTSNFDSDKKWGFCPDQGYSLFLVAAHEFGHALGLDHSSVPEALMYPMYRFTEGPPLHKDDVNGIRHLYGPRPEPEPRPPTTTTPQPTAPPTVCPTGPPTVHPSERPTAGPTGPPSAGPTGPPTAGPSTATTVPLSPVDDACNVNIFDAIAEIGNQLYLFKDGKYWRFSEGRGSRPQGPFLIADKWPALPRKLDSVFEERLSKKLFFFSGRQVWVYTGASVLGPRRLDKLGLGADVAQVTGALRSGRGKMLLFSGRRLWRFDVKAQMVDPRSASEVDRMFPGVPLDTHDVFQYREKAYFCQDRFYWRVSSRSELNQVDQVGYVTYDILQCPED
For series [2], the target named is T2, MMP-14 (Homo sapiens, UniProt P50281). Description: biochemical.
The target of series [3] is T3, MMP-7 (Homo sapiens, UniProt P09237).
T3 sequence (P09237 95-267): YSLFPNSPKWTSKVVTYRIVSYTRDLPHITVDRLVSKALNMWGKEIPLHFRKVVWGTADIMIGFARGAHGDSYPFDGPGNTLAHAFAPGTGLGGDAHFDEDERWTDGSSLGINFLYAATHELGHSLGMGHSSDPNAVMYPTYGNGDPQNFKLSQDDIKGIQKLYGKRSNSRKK
Description: biochemical.

Series [4] addresses T4, MMP-3 (Homo sapiens, UniProt P08254). Description: biochemical.
Target sequence in this assay (P08254 100-272 limits assumed): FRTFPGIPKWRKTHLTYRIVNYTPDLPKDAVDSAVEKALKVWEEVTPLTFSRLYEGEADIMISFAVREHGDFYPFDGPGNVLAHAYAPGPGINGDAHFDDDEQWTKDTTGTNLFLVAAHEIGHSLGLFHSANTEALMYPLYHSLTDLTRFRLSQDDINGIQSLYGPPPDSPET
For series [5], the target named is T5, MMP-1 (Homo sapiens, UniProt P03956).
T5 sequence (P03956 100-469): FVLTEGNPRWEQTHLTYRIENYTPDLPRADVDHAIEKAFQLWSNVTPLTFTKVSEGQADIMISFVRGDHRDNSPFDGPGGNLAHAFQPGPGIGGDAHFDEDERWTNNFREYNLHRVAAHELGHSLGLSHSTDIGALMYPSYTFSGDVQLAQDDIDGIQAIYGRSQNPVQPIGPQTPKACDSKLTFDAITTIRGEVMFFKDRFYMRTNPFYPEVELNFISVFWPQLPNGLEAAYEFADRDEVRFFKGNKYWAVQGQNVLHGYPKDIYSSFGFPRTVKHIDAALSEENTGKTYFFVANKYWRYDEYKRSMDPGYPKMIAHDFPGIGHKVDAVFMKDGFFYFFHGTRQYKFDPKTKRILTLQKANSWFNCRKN
Description: biochemical.

The next series can be described thus: physchem. As to conditions: 37 °C, pH 7.5, aqueous with cosolvent or surfactant or cyclodextrin, kinetic from dmso stock.
The target of a further series is T6, MMP-2 (Homo sapiens, UniProt P08253).
T6 sequence (P08253 110-660): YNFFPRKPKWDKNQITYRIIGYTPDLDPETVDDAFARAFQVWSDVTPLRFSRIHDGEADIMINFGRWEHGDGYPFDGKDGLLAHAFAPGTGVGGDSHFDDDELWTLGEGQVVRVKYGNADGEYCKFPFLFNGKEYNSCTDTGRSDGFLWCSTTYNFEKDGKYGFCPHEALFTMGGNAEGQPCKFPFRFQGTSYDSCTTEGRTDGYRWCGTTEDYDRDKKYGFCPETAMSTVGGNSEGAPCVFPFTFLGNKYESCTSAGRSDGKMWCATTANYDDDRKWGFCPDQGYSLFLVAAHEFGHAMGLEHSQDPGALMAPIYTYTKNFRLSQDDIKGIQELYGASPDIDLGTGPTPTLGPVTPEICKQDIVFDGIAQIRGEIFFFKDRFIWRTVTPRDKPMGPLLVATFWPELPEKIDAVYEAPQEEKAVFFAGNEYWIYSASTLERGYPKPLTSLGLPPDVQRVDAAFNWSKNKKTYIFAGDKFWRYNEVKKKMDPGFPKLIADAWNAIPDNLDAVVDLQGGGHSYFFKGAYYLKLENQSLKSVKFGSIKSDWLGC
The series is described as follows: Enzyme kinetics, MMP inhibition (Example 1). It is filed as biochemical. The conditions noted are these: for Ki: for 1.3 with slow-binding component.

Series [6] deals with T1, MMP-9. The series is described as follows: Enzyme kinetics, MMP inhibition (Example 1). The class given is biochemical.
Target sequence in this assay (P14780 94-707): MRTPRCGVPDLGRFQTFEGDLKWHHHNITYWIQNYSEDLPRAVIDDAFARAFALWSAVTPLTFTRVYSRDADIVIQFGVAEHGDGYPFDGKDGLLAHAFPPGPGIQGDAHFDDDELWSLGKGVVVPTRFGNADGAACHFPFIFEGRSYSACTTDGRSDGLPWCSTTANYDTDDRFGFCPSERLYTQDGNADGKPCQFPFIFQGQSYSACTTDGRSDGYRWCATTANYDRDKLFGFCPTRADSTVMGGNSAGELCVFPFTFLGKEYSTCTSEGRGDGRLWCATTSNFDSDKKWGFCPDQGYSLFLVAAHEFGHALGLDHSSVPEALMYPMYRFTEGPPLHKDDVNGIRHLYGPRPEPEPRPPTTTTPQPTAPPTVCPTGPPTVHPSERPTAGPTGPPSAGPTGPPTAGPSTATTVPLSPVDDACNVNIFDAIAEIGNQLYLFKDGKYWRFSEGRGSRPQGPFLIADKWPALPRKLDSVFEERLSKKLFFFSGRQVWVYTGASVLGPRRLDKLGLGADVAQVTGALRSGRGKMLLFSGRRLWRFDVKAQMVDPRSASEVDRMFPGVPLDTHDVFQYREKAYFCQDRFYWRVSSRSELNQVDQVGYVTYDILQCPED
The target of a further series is T7, MMP-14cat (Homo sapiens, UniProt P50281).
T7 construct: MMP-2 (A), MMP-9 (B) and MMP-14cat (C)
Description: Enzyme kinetics, MMP inhibition (Example 1). The class given is biochemical.

Series [7] has as its target T5, MMP-1. The series is described as follows: Enzyme kinetics, MMP inhibition (Example 1). The class given is biochemical.
The target in series [8] is T4, MMP-3. Description: Enzyme kinetics, MMP inhibition (Example 1). It is filed as biochemical.
Target sequence in this assay (P08254 100-477): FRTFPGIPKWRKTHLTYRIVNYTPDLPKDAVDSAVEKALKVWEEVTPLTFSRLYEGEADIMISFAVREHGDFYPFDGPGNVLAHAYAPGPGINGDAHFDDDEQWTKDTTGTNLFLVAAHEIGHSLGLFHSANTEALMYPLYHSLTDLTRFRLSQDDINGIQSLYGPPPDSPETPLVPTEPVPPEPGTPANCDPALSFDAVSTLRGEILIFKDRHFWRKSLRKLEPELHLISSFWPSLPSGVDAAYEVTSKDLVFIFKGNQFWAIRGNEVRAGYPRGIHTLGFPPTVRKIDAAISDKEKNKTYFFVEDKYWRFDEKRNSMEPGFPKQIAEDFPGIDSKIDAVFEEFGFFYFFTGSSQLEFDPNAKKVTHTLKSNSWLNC
Series [9] has as its target T3, MMP-7. The series is described as follows: Enzyme kinetics, MMP inhibition (Example 1). It is filed as biochemical.
Series [10] can be described thus: Assessment of inhibitor solubility. The conditions noted are these: 37 °C, pH 7.5, aqueous with cosolvent or surfactant or cyclodextrin, kinetic from dmso stock.
In series [11] the test system is HT1080 cells. Description: Migration assay, scratch wound. The class given is cell-based, human. How it is done: (§1) FIG. 7 illustrates inhibition of HT1080 cell motility and invasion by inhibitor 2.3. A-B: Confluent cultures of HT1080 cells in 6-well plates were treated with mitomycin C (25 μg/ml) in serum-free DMEM media for 30 minutes. Scratch wounds were made on the monolayers and the wounded cultures were then incubated with serum-free DMEM supplemented without or with various amounts of inhibitor 2.3 (0-20 μM) for up to 20 hours. At each time period, the cultures were photographed (A) and the width of the scratch wound was measured as described under the Experimental Procedures section of Example 2. (C): HT1080 cells were seeded in 8-μm pore Transwell filters coated with Matrigel (50 μg/filter) in the presence or absence of inhibitor 2.3 (0.1-10 μM). The number of cells that invaded to the lower side of the filter was counted in three representative fields. Each value represents the mean±SE of four independent determinations. *P<0.05, and *P<0.001 when tested against the control using Tukey-Kramer Multiple Comparisons Test (P=0.004 by ANOVA).
Migration and Invasion Assays—For migration assays, HT1080 cells were cultured in 6-well plates in complete media until they reached confluence. […] The extent of wound closure in the presence or absence of inhibitor was quantified by measuring the width of the wound with a ruler using an amplified PowerPoint figure.

Series [12] has as its system HT1080 cells. The series is described as follows: Tumor cell invasion, Matrigel-coated Transwell. The class given is cell-based. The conditions noted are these: Homo sapiens, HT-1080; 100 nM; Matrigel-coated filters, 18 h. How it is done:
as §1
Tumor cell invasion was carried out in 8-μm pore Transwell inserts (Becton Dickinson, Boston, Mass.) coated with 50 μg Matrigel per filter. […] The cells that migrated to the lower side of the Matrigel-coated filter were fixed and stained with Diff-Quik® (Dade Behring Inc., Newark, Del.), and counted under a microscope in three different fields. […]

Series [13] relates to HT1080 cells. Description: Chemosensitivity assay (WST-1). As to conditions: up to 10 μM, 18 hours. It is filed as cell-based, human. The procedure:
Chemosensitivity Assay—Cell viability after exposure of the cells to the inhibitors was assessed by 2-(4-iodophenyl)-3-(4-nitrophenyl)-5-(2,4-disulfophenyl)-2H-tetrazolium, monosodium salt (WST-1, Roche Diagnostics Gmbh, Mannheim, Germany) staining Briefly, HT1080 cells (2×10^4 cells/well) were seeded in 96-well culture plates in complete medium. After overnight culture, the medium was replaced with serum and phenol-free media containing 0.1% BSA and supplemented with or without inhibitor 2.3 (0-10 μM final concentrations). Control medium was supplemented with 1% DMSO. After 18 hours incubation, WST-1 (10 μL/well) was added and the difference in absorbance at 450 and 655 (reference filter) nm was measured using a Bio-Rad Benchmark microplate reader. Data were collected using the Microplate Manager software. The absorbance of blank wells containing control media but no cells (typically <5%) was subtracted. Each treatment was assayed in quadruplicate.
On the technique in general: Formazan colour is commonly taken as a measure of viable cells.

Series [14] has as its target T1, MMP-9. As to conditions: read-out: Ki of the slow-binding component.
Target sequence in this assay (P14780 107-707 limits assumed): as the sequence (P14780 107-707 limits assumed) above
Series [15] addresses T2, MMP-14. The conditions noted are these: MMP-14, slow-binding component, koff/kon.
The target in series [16] is T3, MMP-7. The conditions noted are these: MMP-7, rapid competitive inhibition.
The target of series [17] is T4, MMP-3. The conditions noted are these: MMP-3, rapid competitive inhibition.
Target sequence in this assay (P08254 100-272 limits assumed): as the sequence (P08254 100-272 limits assumed) above

In the case of `O=[N+]([O-])c1ccc(Oc2ccc(S(=O)(=O)CC3CO3)cc2)cc1` (stereo not drawn) [Compound 2.4, [4-(4-Nitrophenoxy)phenylsulfonyl]methyloxirane], the Ki at MMP-9 [1] was 25 ± 5 µM; at MMP-14 [2] it was 76 ± 13 µM; at MMP-7 [3], 130 ± 15 µM; at MMP-3 [4], over 190 µM; at MMP-1 [5] it was over 298 µM.
Compound `O=S(=O)(CC1CS1)c1ccc(Oc2ccccc2)cc1` (stereo not drawn) [Compound 2.1, reference compound] came in with a solubility in “physchem” of 80 µM (≈ 24.5 µg/mL).
Turning to “Methyl 2-(4-{4-[(2-Thiiranylpropyl)sulfonyl]phenoxy}phenyl)-acetate [Compound 1.3]”, the “koff, slow-binding component of inhibition” value on MMP-2 is given as “(6.2 ± 0.7) × 10^−4 s^−1”. The “kon, slow-binding component of inhibition” value on MMP-2 was “(1.2 ± 0.3) 10^4 M^−1s^−1”. The inhibitory constant (Ki) at MMP-2 stood at 0.05 ± 0.014 µM; on MMP-9 [6], 0.04 ± 0.002 µM; at MMP-14cat, 0.59 ± 0.07 µM; at MMP-1 [7], 11 µM; at MMP-3 [8], 8.7 µM; on MMP-7 [9] it was 13 µM.
Take `CC(=O)Nc1ccc(Oc2ccc(S(=O)(=O)CC3CO3)cc2)cc1` (stereo not drawn) [Compound 2.6, [4-(4-Acetamidophenoxy)phenylsulfonyl]methyloxirane]: the inhibition constant (Ki) was 34 ± 3 µM at MMP-9 [1]; over 230 µM at MMP-14 [2]; over 184 µM at MMP-7 [3]; over 188 µM on MMP-3 [4]; over 154 µM at MMP-1 [5].
The compound `CC(=O)Nc1ccc(Oc2ccc(S(=O)(=O)CC3CS3)cc2)cc1` (stereo not drawn) [Compound 2.7, [4-(4-Acetamidophenoxy)phenylsulfonyl]methylthiirane] showed a solubility in the series “physchem” of 540 µM (≈ 196 µg/mL).
Consider `O=[N+]([O-])c1ccc(Oc2ccc(S(=O)(=O)CC3CS3)cc2)cc1` (stereo not drawn) [Compound 2.5, [4-(4-Nitrophenoxy)phenylsulfonyl]methylthiirane], for which the Ki amounted to 1 ± 0.1 µM on MMP-9 [1]; 4.9 ± 0.3 µM on MMP-14 [2]; 153 ± 16 µM at MMP-7 [3]; 131 ± 9 µM at MMP-3 [4]; 67 ± 18 µM at MMP-1 [5]. The amount in solution in [10] (solubility) came to 60 µM (≈ 21.1 µg/mL).
As to `CS(=O)(=O)Nc1ccc(Oc2ccc(S(=O)(=O)CC3CS3)cc2)cc1` (stereo not drawn) [Compound 2.3, {4-[4-(Methanesulfonamido)phenoxy]phenylsulfonyl}methylthiirane], the “migration in scratch wound assay” value in the series with HT1080 cells [11] (200 nM) is “slower migration”. In the series on HT1080 cells [11] (Homo sapiens, HT-1080), this compound had an inhibition at 2 µM of 80%. In addition, the inhibition at 0.1 µM in the series with HT1080 cells [12] was over 25%. Moreover, the “cell toxicity (WST-1)” value in the series on HT1080 cells [13] is “no evidence of cell toxicity”. Moreover, the inhibition constant (Ki) on MMP-9 [14] was 0.18 ± 0.05 µM; on MMP-14 [15], 0.9 ± 0.1 µM; at MMP-7 [16], 295 ± 10 µM; at MMP-3 [17], 3.6 ± 0.2 µM; on MMP-1 [5] it was over 25 µM. Moreover, the solubility in the series “physchem” amounted to 340 µM (≈ 136 µg/mL).
For the compound “2-(4-{4-[(2-Thiiranylpropyl)sulfonyl]phenoxy}phenyl)acetic acid [Compound 1.4]”, the inhibitory constant (Ki) on MMP-2 is 0.46 µM; on MMP-9 [6] it was 4.1 µM; on MMP-14cat, 53 µM; on MMP-1 [7] it was 4.5 µM; on MMP-3 [8], 540 µM; on MMP-7 [9] it was 250 µM.

Source of the values: patent US8093287B2, “Inhibitors of matrix metalloproteinases” (University of Notre Dame du Lac, priority 2005, dated 2012).
